In patent US20230279146A1, “VISCOSITY REDUCING EXCIPIENTS AND COMBINATIONS THEREOF FOR HIGHLY CONCENTRATED PROTEIN FORMULATIONS” (Merck Patent GmbH, priority 2020, published 2023):
“Also recorded” adds a separate entry of the source. Structures can show the parent of a compound that is named as a salt.

Legend:
Assay type in all cases: physicochemical
Infliximab [1] = assay: Viscosity of Infliximab formulated in phosphate buffer pH 7.2 with single excipients (mVROC microfluidic viscometer, 20° C.); details: for viscosity reducing effect on the Infliximab solution: protein concentrations 152 mg/ml and 185 mg/ml, 150 thiamine hydrochloride, thiamine monophosphate
Procedure: Individual excipient solutions of 150 mM valine, leucine, phenylalanine, ascorbic acid, pyridoxine, proline and thiamine monophosphate were prepared in phosphate buffer pH 7.2. In the same buffer, a 5 mM solution of cyanocobalamin was prepared. Folic acid was prepared in a 13 mM concentration in phosphate puffer pH 7.2. Thiamine pyrophosphate was prepared in a 75 mM concentration in phosphate puffer pH 7.2. The pH was adjusted using HCl or NaOH where necessary.
For absorption spectroscopy, the absorbance at 280 nm was measured using a BioSpectrometer® kinetic (Eppendorf, Hamburg, Germany) with a protein extinction coefficient of A0.1%, 280 nm=1.428.
The mVROC™ Technology (Rheo Sense, San Ramon, Calif., USA) was used for viscosity measurements.
Measurements were performed at 20° C. using a 500 μl syringe and a shear rate of 3000 s-1. A volume of 200 μl was used. All samples were measured as triplicates.
Results of viscosity measurements regarding these experiments can be seen in FIG. 1, FIG. 2 and FIG. 3.

Infliximab [2] = assay: Thermal stability (Tm, Tagg) of Infliximab in phosphate buffer pH 7.2 by nano-DSF; details: Infliximab pH 7.2, change versus control; for aggregation onset temperature Tagg: 150 mM excipient; for thermodynamic transition temperature characterizing heat induced protein unfolding (Tm): 150 mM valine, leucine, ascorbic acid or proline, 5 mM cyanocobalamin
Procedure: 2.1 Thermal Stability of Infliximab Formulated in Phosphate Buffer pH 7.2 Containing Valine, Leucine, Ascorbic Acid, Cyanocobalamin and Proline as Single Excipients
Buffers and samples were prepared as described under 1.1.
The nano-DSF Technology of a Prometheus system (NanoTemper Technologies GmbH, Munich, Germany) was used to determine melting points and aggregation points.
Fluorescence was measured at 330 and 350 nm as well as the backscattering intensity over a temperature range from 20 to 95° C. with an incline of 1° C./min.
Buffers and samples were prepared as described under 1.4 and 1.5.
Thermal stability measurements were performed as described under 2.1.

Evolocumab = assay: Viscosity of Evolocumab formulated in acetate buffer pH 5.0 with single excipients (mVROC microfluidic viscometer, 20° C.); details: for viscosity of the formulation: Evolocumab 196 mg/ml, 150 mM pyridoxine, thiamine hydrochloride or ascorbic acid, 75 mM Paracetamol; for viscosity of the formulation / viscosity of a Evolocumab formulation: pH 5.0; for viscosity for Evolocumab formulations: pH 5.0, 150 mM excipient; for viscosity reducing effect compared among the excipients: Evolocumab pH 5.0, 150 mM excipient, data set with concentration by absorption spectroscopy
Procedure: 20 mM Acetate buffer was prepared by mixing 1.2 mg/ml glacial acetic acid with ultrapure water. pH was adjusted to 5.0 using HCl and NaOH if necessary. 0.1 mg/ml Polysorbate 80 was added as stabilizer
Excipient solutions of 150 mM leucine, isoleucine, phenylalanine, ascorbic acid, pyridoxine, proline, lysine, guanidine hydrochloride, thiamine hydrochloride, thiamine monophosphate were prepared in acetate buffer pH 5.0, respectively. Similarly, 25 mM quinine hydrochloride and 5 mM cyanocobalamin were prepared, respectively. Paracetamol and thiamine pyrophosphate were prepared with a concentration of 75 mM. The pH was adjusted using HCl or NaOH, if necessary.
When excipients themselves have a strong absorbance at 280 nm a Bradford-Assay was used.
The mVROC™ Technology (Rheo Sense, San Ramon, Calif. USA) was used for viscosity measurements.
A volume of 200 μl was used. All samples were measured as triplicates.

[3] = protein concentration 149 mg/ml, 150 mM pyridoxine, thiamine hydrochloride or thiamine monophosphate, 5 mM cyanocobalamin, 13 mM folic acid, 75 mM thiamine pyrophosphate
[4] = protein concentration 174 mg/ml, 150 mM pyridoxine, ascorbic acid, thiamine hydrochloride or thiamine phosphate, 5 mM cyanocobalamin, 13 mM folic acid, 75 mM thiamine pyrophosphate, versus formulation without excipients
[5] = protein concentration 122 mg/ml (absorption spectroscopy), pH 7.2, 150 mM excipient, versus no excipient
[6] = 5 mM cyanocobalamin, 25 mM quinine hydrochloride
[7] = protein concentration 180 mg/ml (Bradford assay), 150 mM pyridoxine or thiamine hydrochloride, 5 mM cyanocobalamin, 25 mM quinine hydrochloride, 75 mM paracetamol
[8] = protein concentration 143 mg/ml, pH 7.2, 150 mM excipient, versus no excipient
[9] = higher protein concentration of 192 mg/ml
[10] = protein concentration 192 mg/ml (first mention, absorption spectroscopy)
[11] = third data set, 75 mM thiamine pyrophosphate, 150 mM thiamine hydrochloride, thiamine monophosphate (thiamine monophosphate only at 180 mg/ml)

Row | viscosity of the formulation (Infliximab [1]; [3]) | viscosity of the formulation (Infliximab [1]; [4]) | thermodynamic transition temperature characterizing heat induced protein unfolding (Tm) (Infliximab [2]) | viscosity of the formulation (Evolocumab; [6]) | viscosity of a Evolocumab formulation (Evolocumab; [7]) | viscosity for Evolocumab formulations (Evolocumab; [9]) | viscosity for Evolocumab formulations (Evolocumab; [10]) | Molecule | other results
1 | reduce the viscosity of the formulation | reduce the viscosity of the formulation | – | – | – | – | – | Nc1nc2ncc(CNc3ccc(C(=O)N[C@@H](CCC(=O)O)C(=O)O)cc3)nc2c(=O)[nH]1 [folic acid] | –
2 | – | – | increase | – | – | – | – | CC(C)[C@H](N)C(=O)O [valine] | viscosity of the formulation (Infliximab [1]; [5]): reduced the viscosity of the formulation; aggregation onset temperature Tagg (Infliximab [2]): increase
3 | – | – | – | reduced the viscosity of the formulation | reduced viscosity of the formulation | – | – | CC(=O)Nc1ccc(O)cc1 [paracetamol, reference compound] | –
4 | reduce the viscosity of the formulation | reduce the viscosity of the formulation | increase | reduced the viscosity of the formulation | reduced viscosity of the formulation | – | – | cyanocobalamin | –
5 | – | – | increase | – | – | reduced viscosity | – | O=C(O)[C@@H]1CCCN1 [proline] | viscosity of the formulation (Infliximab [1]; [5]): reduced the viscosity of the formulation; viscosity of the formulation (Infliximab [1]; [8]): reduced viscosity of the formulation; aggregation onset temperature Tagg (Infliximab [2]): increase
6 | – | – | – | – | – | reduced viscosity | reduced viscosity | CC[C@H](C)[C@H](N)C(=O)O [isoleucine] | –
7 | – | – | – | reduced the viscosity of the formulation | reduced viscosity of the formulation | – | – | C=C[C@H]1C[N@@]2CC[C@H]1C[C@H]2[C@H](O)c1ccnc2ccc(OC)cc12 [quinine hydrochloride, (R)-[(1S,2S,4S,5R)-5-ethenyl-1-azabicyclo[2.2.2]octan-2-yl](6-methoxyquinolin-4-yl)methanol dihydrate hydrochloride, reference compound] | –
8 | – | viscosity reducing effect | increase | reduced viscosity of the formulation | – | – | – | O=C1O[C@H]([C@@H](O)CO)C(O)=C1O [ascorbic acid] | aggregation onset temperature Tagg (Infliximab [2]): increase
9 | – | – | increase | – | – | reduced viscosity | reduced viscosity | CC(C)C[C@H](N)C(=O)O [leucine] | viscosity of the formulation (Infliximab [1]; [5]): reduced the viscosity of the formulation; viscosity of the formulation (Infliximab [1]; [8]): reduced viscosity of the formulation; viscosity reducing effect compared among the excipients (Evolocumab): most pronounced viscosity reducing effect; aggregation onset temperature Tagg (Infliximab [2]): increase
10 | – | – | – | – | reduced | – | – | Cc1ncc(C[n+]2csc(CCO)c2C)c(N)n1 [thiamine hydrochloride] | viscosity of the formulation (Infliximab [1]; protein concentration 149 mg/ml, 150 mM pyridoxine, thiamine hydrochloride or thiamine monophosphate, 5 mM cyanocobalamin, 13 mM folic acid, 75 mM thiamine pyrophosphate, hydrochloride): reduce the viscosity of the formulation; also recorded: high viscosity reducing potential; viscosity of the formulation (Infliximab [1]; protein concentration 174 mg/ml, 150 mM pyridoxine, ascorbic acid, thiamine hydrochloride or thiamine phosphate, 5 mM cyanocobalamin, 13 mM folic acid, 75 mM thiamine pyrophosphate, versus formulation without excipients, hydrochloride): high viscosity reducing potential; viscosity of the formulation (Infliximab [1]; protein concentration 174 mg/ml, 150 mM pyridoxine, ascorbic acid, thiamine hydrochloride or thiamine phosphate, 5 mM cyanocobalamin, 13 mM folic acid, 75 mM thiamine pyrophosphate, versus formulation without excipients, listed as thiamine hydrochoride, hydrochloride): viscosity reducing effect; viscosity reducing effect on the Infliximab solution (Infliximab [1]; 75 mM thiamine pyrophosphate): strong viscosity reducing effect; viscosity of the formulation (Evolocumab; 5 mM cyanocobalamin, 25 mM quinine hydrochloride, hydrochloride): reduced viscosity of the formulation; also recorded: most efficient viscosity reducing excipient; viscosity of a Evolocumab formulation (Evolocumab; [11]): reduced the viscosity
11 | – | – | – | – | – | reduced viscosity | reduced viscosity | N=C(N)N [guanidine hydrochloride, carbamimidoylazanium chloride] | viscosity reducing effect compared among the excipients (Evolocumab): most pronounced viscosity reducing effect
12 | reduce the viscosity of the formulation | viscosity reducing effect | – | reduced viscosity of the formulation | reduced | – | – | Cc1ncc(CO)c(CO)c1O [pyridoxine] | –
13 | – | – | – | – | – | reduced viscosity | reduced viscosity | N[C@@H](Cc1ccccc1)C(=O)O [phenylalanine] | viscosity of the formulation (Infliximab [1]; [5]): reduced the viscosity of the formulation; viscosity of the formulation (Infliximab [1]; [8]): reduced viscosity of the formulation; also recorded: most efficient viscosity reducing excipient
14 | reduce the viscosity of the formulation | reduce the viscosity of the formulation | – | – | – | – | – | Cc1ncc(C[n+]2csc(CCO[P@](=O)(O)OP(=O)(O)O)c2C)c(N)n1 [thiamine pyrophosphate] | viscosity reducing effect on the Infliximab solution (Infliximab [1]; 75 mM thiamine pyrophosphate): strong viscosity reducing effect; viscosity reducing efficiency (Evolocumab; formulations with 179 mg/ml and 204 mg/ml Evolocumab, 75 mM excipient): highly efficient; viscosity of a Evolocumab formulation (Evolocumab; [11]): reduced the viscosity
15 | reduce the viscosity of the formulation | high viscosity reducing potential | – | – | – | – | – | Cc1ncc(C[n+]2csc(CCOP(=O)(O)O)c2C)c(N)n1 [thiamine monophosphate] | viscosity of the formulation (Infliximab [1]; protein concentration 174 mg/ml, 150 mM pyridoxine, ascorbic acid, thiamine hydrochloride or thiamine phosphate, 5 mM cyanocobalamin, 13 mM folic acid, 75 mM thiamine pyrophosphate, versus formulation without excipients, listed as thiamine phosphate): viscosity reducing effect; viscosity reducing effect on the Infliximab solution (Infliximab [1]; 75 mM thiamine pyrophosphate): strong viscosity reducing effect; viscosity of a Evolocumab formulation (Evolocumab; [11]): reduced the viscosity

Row | Molecule | viscosity of the formulation (Infliximab [1]; [3]) | viscosity of the formulation (Infliximab [1]; [4]) | thermodynamic transition temperature characterizing heat induced protein unfolding (Tm) (Infliximab [2]) | viscosity of the formulation (Evolocumab; [6]) | viscosity of a Evolocumab formulation (Evolocumab; [7]) | viscosity for Evolocumab formulations (Evolocumab; [9]) | viscosity for Evolocumab formulations (Evolocumab; [10]) | other results
16 | NCCCC[C@H](N)C(=O)O [lysine] | – | – | – | – | – | reduced viscosity | reduced viscosity | viscosity reducing effect compared among the excipients (Evolocumab): most pronounced viscosity reducing effect
